Earlier results in paper PMC8450225 (Bioorganic & Medicinal Chemistry, 2021).
Where two headings read alike, the source gives them in different places. Primed or numbered codes have the meaning given here. Bz′ = not defined here

How the values were obtained:
HuH-7 cells = details: 1 µM, three days of incubation on HuH-7 cells, Alamar Blue
dengue serotype 2 = details: at 1 µM concentration, HuH-7 and K562 cell lines
WNV NS2B-NS3 pro = details: 50 µM substrate concentration and 25 µM compound concentration
DENV NS2B-NS3 pro = details: 50 µM substrate concentration and 50 µM compound concentration
DENV2 pro [1] = test system: DENV2 pro
DENV2 [2] = details: DENV2 viral replication assay
DENV2 pro [3] = test system: DENV2 pro; remark: listed apart in the source
DENV 1–4 pro = details: range over DENV 1–4 pro
DENV2 [4] = details: DENV2 replication inhibition, BHK21 cells
DENV2 pro [5] = test system: DENV2 pro; remark: listed apart in the source
DENV2 [6] = details: antiviral activity against DENV2
DENV2 pro [7] = test system: DENV2 pro; remark: listed apart in the source
NS2B-NS3 pro = details: read-out: Ki (Reported)
DENV2 pro [8] = test system: DENV2 pro; remark: listed apart in the source
DENV = details: at 100 µM

For `O=C1c2c(O)ccc([N+](=O)[O-])c2C(=O)c2c([N+](=O)[O-])ccc(O)c21` [ARDP0006], the cytotoxicity (HuH-7 cells) is given as “non-cytotoxic” and the “reduction of dengue viral titer” value (dengue serotype 2) is given as > 1 log PFU/mL.

In the case of `CN(C)C(=O)COC(=O)Cc1ccc(OC(=O)c2ccc(NC(=N)N)cc2)cc1` [Camostat], the “Percentage inhibition of NS2B-NS3 pro, WNV” value (WNV NS2B-NS3 pro) is listed as 12.6% and the “Percentage inhibition of NS2B-NS3 pro, DENV” value (DENV NS2B-NS3 pro) is listed as 19.6%.

In the case of `CC(=O)O[C@H]1CC(C)(C)C(=C=C/C(C)=C/C=C/C=C/C=C(C)/C=C2C=C(/C=C/[C@@]34O[C@]3(C)C[C@@H](O)CC4(C)C)C(=O)O/2)[C@](C)(O)C1` [Compound 35, peridinin], the EC50 (DENV2 pro [1]) is given as 8.5 ± 0.41 µM.

For `O=C(Nc1nc2cc(O)c(O)cc2s1)c1ccccc1Sc1ccc(C(F)(F)F)cc1` [Compound 38], the EC50 (DENV2 [2]) is given as > 3 µM.

For `O=C(Nc1nc2cc(O)c(O)cc2s1)c1ccccc1Oc1ccc2cc(O)ccc2c1` [Compound 39], the IC50 (DENV2 pro [3]) is listed as 4.2 ± 0.44 µM.

For `COc1cc2nc(NC(=O)c3ccccc3Sc3ccc(C(F)(F)F)cc3)sc2cc1OC` [Compound 40], the IC50 (DENV2 pro [3]) is listed as “inactive”.

For `Cc1ccc(C2=NC(=O)/C(=C/c3cc(O)c(O)c(Br)c3)S2)cc1` [Compound 42], the IC50 (DENV 1–4 pro) is listed as 2.94 to 4.06 µM and the EC50 (DENV2 [4]) is listed as 6.9 ± 0.6 µM.

For `Cc1ccc(C(=O)c2cc(O)c(O)c([N+](=O)[O-])c2)cc1` [Compound 43], the IC50 (DENV 1–4 pro) is given as 0.64 to 1.15 µM and the EC50 (DENV2 [4]) is given as 2.29 µM.

For `O=C(OC[C@H]1O[C@@H](OC(=O)c2cc(O)c(O)c(OC(=O)c3cc(O)c(O)c(O)c3)c2)[C@H](OC(=O)c2cc(O)c(O)c(OC(=O)c3cc(O)c(O)c(O)c3)c2)[C@@H](OC(=O)c2cc(O)c(O)c(OC(=O)c3cc(O)c(O)c(O)c3)c2)[C@@H]1OC(=O)c1cc(O)c(O)c(OC(=O)c2cc(O)c(O)c(O)c2)c1)c1cc(O)c(O)c(OC(=O)c2cc(O)c(O)c(O)c2)c1` [Compound 44], the IC50 (DENV 1–4 pro) is listed as 0.13 to 0.77 µM.

For `CCc1ccc(NS(=O)(=O)c2ccc(N3C(=O)c4ccccc4C3=O)cc2)cc1` [Compound 46], the IC50 (DENV2 pro [5]) is given as 48.2 µM.

For `CCCCC1C(C(=O)N(C)OC)C(c2ccccc2)CCN1C(=O)OC(C)(C)C` (stereo not shown) [Compound 51], the EC50 (DENV2 [6]) is listed as 2.4 µM.

In the case of `Cc1cc(O)c(S(=O)(=O)O)cc1Cc1cc(S(=O)(=O)O)c(O)c(Cc2cc(S(=O)(=O)O)c(O)cc2C)c1C` [Compound 60], the IC50 (DENV2 pro [7]) is listed as “IC50 = 0.48 μg/mL”.

For Ac-RTSKKR-NH2, the Ki (NS2B-NS3 pro) is given as 12.1 µM.

For “BZ-Ala-Lys-Arg-Arg-H ({Bz′}-AKRR-aldehyde; also: C-terminal aldehyde)”, the Ki (NS2B-NS3 pro) is listed as 5.3 µM.

In the case of “Bz-Arg-Lys-(4-CF3-benzyl ether)-D-Phg-NH2 [Compound 7]”, the IC50 (DENV2 pro [8]) is given as 0.069 µM.

In the case of Bz-Arg-Lys-(4-benzyloxy)-D-Phg-NH2, the IC50 (DENV2 pro [8]) is listed as 0.367 µM.

In the case of Bz-Arg-Lys-Phg-NH2 [reference compound], the IC50 (DENV2 pro [8]; starting tripeptide) is given as 3.32 µM.

For kaempferol-3-O-rutinoside [Compound 24], the DENV inhibition (DENV) is given as 77.7%.
